Measurements reported in the supplement of paper PMC13380429.

Columns and labels:
A549-ACE2 [1] = assay: phospholipidosis EC50; higher = less potent phospholipidosis inducer
Calu-3 [2] = assay: drug sensitivity score (DSS) for viability; higher = more toxic; extreme values may be limits of the assay; details: 72 h
U2OS [3] = assay: as above; details: 72 h
Caco-2 [4] = assay: as above; details: 72 h
HepG2 [5] = assay: as above; details: 72 h
Vero E6 [6] = assay: as above; details: 72 h
Calu-3 [7] = assay: relative viability EC50 (midpoint between 100% and the lowest measured viability); higher = less toxic; details: 72 h
U2OS [8] = assay: as above; details: 72 h
HepG2 [9] = assay: as above; details: 72 h
Calu-3 [10] = assay: cell viability relative to DMSO; higher = less toxic; details: 72 h
U2OS [11] = assay: as above; details: 72 h
Caco-2 [12] = assay: as above; details: 72 h
HepG2 [13] = assay: as above; details: 72 h
Vero E6 [14] = assay: as above; details: 72 h
[15] = test system: A549-ACE2 infected with SARS-CoV-2; assay: SARS-CoV-2 infection rate relative to DMSO; higher = more infection; details: 24 h
A549-ACE2 [16] = assay: drug-induced phospholipidosis relative to tamoxifen; higher = more phospholipidosis
[17] = test system: A549-ACE2 infected with SARS-CoV-2; assay: cell count relative to DMSO; higher = less toxic; details: 24 h
[18] = test system: A549-ACE2 infected with SARS-CoV-2; assay: morphology score (similarity to uninfected cells); higher = more like uninfected cells; details: 24 h
Caco-2 [19] = assay: relative viability EC50 (midpoint between 100% and the lowest measured viability); higher = less toxic; details: 72 h
Vero E6 [20] = assay: as above; details: 72 h

SMILES: CCN(CC)CCCCN1c2ccccc2Oc2ccc(Cl)cc21 [10-DEBC]
- phospholipidosis EC50 (A549-ACE2 [1]; 24 h): 3.06 µM
- phospholipidosis EC50 (A549-ACE2 [1]; 48 h): 3.97 µM
- phospholipidosis EC50 (A549-ACE2 [1]; 72 h): 4.34 µM
- drug sensitivity score (Calu-3 [2]): 3.1
- drug sensitivity score (U2OS [3]): 0.8
- drug sensitivity score (Caco-2 [4]): 1.4
- drug sensitivity score (HepG2 [5]): 4.7
- drug sensitivity score (Vero E6 [6]): 3
- relative viability EC50 (Calu-3 [7]): 3.43 µM
- relative viability EC50 (U2OS [8]): > 10 µM
- relative viability EC50 (HepG2 [9]): 1.76 µM
- cell viability (Calu-3 [10]; 1 nM): 112%
- cell viability (Calu-3 [10]; 10 nM): 105%
- cell viability (Calu-3 [10]; 100 nM): 110%
- cell viability (Calu-3 [10]; 1000 nM): 103%
- cell viability (Calu-3 [10]; 10000 nM): 39%
- cell viability (U2OS [11]; 1 nM): 100%
- cell viability (U2OS [11]; 10 nM): 96.4%
- cell viability (U2OS [11]; 100 nM): 94.7%
- cell viability (U2OS [11]; 1000 nM): 93.3%
- cell viability (U2OS [11]; 10000 nM): 80.1%
- cell viability (Caco-2 [12]; 1 nM): 93.2%
- cell viability (Caco-2 [12]; 10 nM): 99.6%
- cell viability (Caco-2 [12]; 100 nM): 100%
- cell viability (Caco-2 [12]; 1000 nM): 102%
- cell viability (Caco-2 [12]; 10000 nM): 66.1%
- cell viability (HepG2 [13]; 1 nM): 90.3%
- cell viability (HepG2 [13]; 10 nM): 103%
- cell viability (HepG2 [13]; 100 nM): 87.4%
- cell viability (HepG2 [13]; 1000 nM): 88.7%
- cell viability (HepG2 [13]; 10000 nM): 45.3%
- cell viability (Vero E6 [14]; 1 nM): 99.5%
- cell viability (Vero E6 [14]; 10 nM): 97.4%
- cell viability (Vero E6 [14]; 100 nM): 93.7%
- cell viability (Vero E6 [14]; 1000 nM): 92.6%
- cell viability (Vero E6 [14]; 10000 nM): 63%
- SARS-CoV-2 infection rate ([15]; 0.1 µM): 109%
- SARS-CoV-2 infection rate ([15]; 0.3 µM): 87%
- SARS-CoV-2 infection rate ([15]; 1 µM): 76%
- SARS-CoV-2 infection rate ([15]; 3 µM): 55%
- drug-induced phospholipidosis (A549-ACE2 [16]; 0.3 µM, 24 h): 0.51%
- drug-induced phospholipidosis (A549-ACE2 [16]; 0.3 µM, 48 h): 1.97%
- drug-induced phospholipidosis (A549-ACE2 [16]; 0.3 µM, 72 h): 2.46%
- drug-induced phospholipidosis (A549-ACE2 [16]; 0.833333 µM, 24 h): 1.58%
- drug-induced phospholipidosis (A549-ACE2 [16]; 0.833333 µM, 48 h): 2.56%
- drug-induced phospholipidosis (A549-ACE2 [16]; 0.833333 µM, 72 h): 1.09%
- drug-induced phospholipidosis (A549-ACE2 [16]; 3.33333 µM, 24 h): 47.7%
- drug-induced phospholipidosis (A549-ACE2 [16]; 3.33333 µM, 48 h): 41%
- drug-induced phospholipidosis (A549-ACE2 [16]; 3.33333 µM, 72 h): 30.1%
- drug-induced phospholipidosis (A549-ACE2 [16]; 6.66667 µM, 24 h): 76.9%
- drug-induced phospholipidosis (A549-ACE2 [16]; 6.66667 µM, 48 h): 88.5%
- drug-induced phospholipidosis (A549-ACE2 [16]; 6.66667 µM, 72 h): 85.5%
- drug-induced phospholipidosis (A549-ACE2 [16]; 10 µM, 24 h): 81.2%
- drug-induced phospholipidosis (A549-ACE2 [16]; 10 µM, 48 h): 101%
- drug-induced phospholipidosis (A549-ACE2 [16]; 10 µM, 72 h): 98.7%
- cell count ([17]; 0.1 µM): 107%
- cell count ([17]; 0.3 µM): 103%
- cell count ([17]; 1 µM): 107%
- cell count ([17]; 3 µM): 127%
- morphology score ([18]; 0.1 µM): -0.05
- morphology score ([18]; 0.3 µM): 0.39
- morphology score ([18]; 1 µM): 0.55
- morphology score ([18]; 3 µM): 0.9

SMILES: NCCc1c[nH]c2ccc(C(N)=O)cc12 [5-carboxamidotryptamine]
- drug sensitivity score (Calu-3 [2]): 0
- drug sensitivity score (U2OS [3]): 0
- drug sensitivity score (Caco-2 [4]): 0
- drug sensitivity score (HepG2 [5]): 0
- drug sensitivity score (Vero E6 [6]): 0
- relative viability EC50 (Calu-3 [7]): > 10 µM
- relative viability EC50 (U2OS [8]): > 10 µM
- relative viability EC50 (Caco-2 [19]): > 10 µM
- relative viability EC50 (HepG2 [9]): > 10 µM
- relative viability EC50 (Vero E6 [20]): > 10 µM
- cell viability (Calu-3 [10]; 1 nM): 93.2%
- cell viability (Calu-3 [10]; 10 nM): 104%
- cell viability (Calu-3 [10]; 100 nM): 96%
- cell viability (Calu-3 [10]; 1000 nM): 104%
- cell viability (Calu-3 [10]; 10000 nM): 102%
- cell viability (U2OS [11]; 1 nM): 101%
- cell viability (U2OS [11]; 10 nM): 97.8%
- cell viability (U2OS [11]; 100 nM): 99.1%
- cell viability (U2OS [11]; 1000 nM): 98%
- cell viability (U2OS [11]; 10000 nM): 99.5%
- cell viability (Caco-2 [12]; 1 nM): 97.8%
- cell viability (Caco-2 [12]; 10 nM): 96.5%
- cell viability (Caco-2 [12]; 100 nM): 102%
- cell viability (Caco-2 [12]; 1000 nM): 102%
- cell viability (Caco-2 [12]; 10000 nM): 98.7%
- cell viability (HepG2 [13]; 1 nM): 105%
- cell viability (HepG2 [13]; 10 nM): 96.2%
- cell viability (HepG2 [13]; 100 nM): 95.2%
- cell viability (HepG2 [13]; 1000 nM): 102%
- cell viability (HepG2 [13]; 10000 nM): 98.9%
- cell viability (Vero E6 [14]; 1 nM): 98.8%
- cell viability (Vero E6 [14]; 10 nM): 104%
- cell viability (Vero E6 [14]; 100 nM): 103%
- cell viability (Vero E6 [14]; 1000 nM): 97.4%
- cell viability (Vero E6 [14]; 10000 nM): 97.2%
- SARS-CoV-2 infection rate ([15]; 0.3 µM): 100%
- SARS-CoV-2 infection rate ([15]; 3 µM): 99%
- SARS-CoV-2 infection rate ([15]; 10 µM): 101%
- SARS-CoV-2 infection rate ([15]; 30 µM): 93%
- drug-induced phospholipidosis (A549-ACE2 [16]; 0.3 µM, 24 h): 1.09%
- drug-induced phospholipidosis (A549-ACE2 [16]; 0.3 µM, 48 h): 2.16%
- drug-induced phospholipidosis (A549-ACE2 [16]; 0.3 µM, 72 h): 3.22%
- drug-induced phospholipidosis (A549-ACE2 [16]; 0.833333 µM, 24 h): -2.6%
- drug-induced phospholipidosis (A549-ACE2 [16]; 0.833333 µM, 48 h): -0.39%
- drug-induced phospholipidosis (A549-ACE2 [16]; 0.833333 µM, 72 h): -1.61%
- drug-induced phospholipidosis (A549-ACE2 [16]; 3.33333 µM, 24 h): -3.13%
- drug-induced phospholipidosis (A549-ACE2 [16]; 3.33333 µM, 48 h): 0.18%
- drug-induced phospholipidosis (A549-ACE2 [16]; 3.33333 µM, 72 h): -0.768%
- drug-induced phospholipidosis (A549-ACE2 [16]; 6.66667 µM, 24 h): -2%
- drug-induced phospholipidosis (A549-ACE2 [16]; 6.66667 µM, 48 h): -1.08%
- drug-induced phospholipidosis (A549-ACE2 [16]; 6.66667 µM, 72 h): -1.96%
- drug-induced phospholipidosis (A549-ACE2 [16]; 10 µM, 24 h): -0.66%
- drug-induced phospholipidosis (A549-ACE2 [16]; 10 µM, 48 h): -0.13%
- drug-induced phospholipidosis (A549-ACE2 [16]; 10 µM, 72 h): 0.562%
- drug-induced phospholipidosis (A549-ACE2 [16]; 30 µM, 24 h): 2.03%
- drug-induced phospholipidosis (A549-ACE2 [16]; 30 µM, 48 h): 2.67%
- drug-induced phospholipidosis (A549-ACE2 [16]; 30 µM, 72 h): 3.08%
- cell count ([17]; 0.3 µM): 98%
- cell count ([17]; 3 µM): 96%
- cell count ([17]; 10 µM): 105%
- cell count ([17]; 30 µM): 102%
- morphology score ([18]; 0.3 µM): -0.09
- morphology score ([18]; 3 µM): -0.06
- morphology score ([18]; 10 µM): -0.11
- morphology score ([18]; 30 µM): 0.09
